In patent US20060057669A1, “Inactive transcription factor tif-ia and uses thereof” (priority 2002, published 2006):

Tested on: TIF-IA
Experiment: Two-dimensional tryptic phosphopeptide mapping of TIF-IA labeled in vivo in HEK293T cells
Assay type: cell-based, human
Settings: serum-stimulated cells, 40 μM PD98059
Procedure: HEK293T cells were transfected with pcDNA3.1-FLAG-TIF-IA, starved for 12 hr and labeled for 4 hr with [^32P]orthophosphate. 30 min before harvesting, 10% dialyzed FCS was added and cells were incubated in the absence (left panel) or presence of 40 μM PD98059 (right panel). Immunopurified TIF-IA was subjected to two-dimensional phosphopeptide mapping.
(B) Tryptic peptide maps of TIF-IA phosphorylated in vivo. FLAG-tagged wild-type TIF-IA, TIF-IAS633A and TIF-IAS649A were expressed in HEK293T cells and labeled with [^32P]orthophosphate for 4 hr. TIF-IA was purified by immunoprecipitation and digested with trypsin. Phosphopeptides were separated on cellulose thin-layer plates and visualized by autoradiography. The sequence of the C-terminus of human TIF-IA (H.s.) and an alignment with the corresponding sequences from mouse (M.m.), Drosophila melanogaster (D.m.) and Saccharomyces pombe (S.p.) is shown above.
(A) Two-dimensional tryptic phosphopeptide maps of TIF-IA. HEK293T cells were transfected with FLAG-tagged TIF-IA and labeled for 2 hr with [^32P]orthophosphate in the absence (left) or presence (right) of 20 nM rapamycin. TIF-IA was immunopurified, digested with trypsin, separated on cellulose thin-layer plates and visualized by autoradiography.
(B) Tryptic phosphopeptide map of TIF-IAS44A phosphorylated in vivo. […]

COc1cccc(-c2cc(=O)c3ccccc3o2)c1N [PD98059]
labeling of TIF-IA phosphopeptide spots d, f and g: impaired
phosphorylation of TIF-IA phosphopeptide spots b and c: reduced
